Measurements: patent US10316057B2, “Tandem facial amphiphiles” (WISCONSIN ALUMNI RESEARCH FOUNDATION, priority 2011, dated 2019)
Counter-ions that a name gives are not always drawn.

How the values were obtained:
[1] = Hydrodynamic radii of micelles by dynamic light scattering (DLS); assay type: physicochemical; settings: 0.5 wt % amphiphile in water, 25° C.; mean ± SD, n = 3
Description: TFA-0 forms a hydrogel at concentrations >0.4 wt %, and this compound was not studied further. The other three TFAs are soluble to 5-10 wt % in aqueous media. Critical micelle concentrations (CMC) were determined by monitoring solubilization of a hydrophobic fluorescent dye, […] (Chattopadhyay et al., Anal. Biochem. 1984, 139, 408-412), and the hydrodynamic radii (Rh) of the micelles were determined via dynamic light scattering (DLS). Table 1 compares the data for TFAs with those for DDM, a conventional detergent that is very widely used for MP applications; DDM and the TFAs share maltose as their hydrophilic moieties. CMC values of the three TFAs are smaller than that of DDM, whether CMC is measured in units of mM or wt %.
Each TFA and DDM was dissolved in distilled, deionized (DI) water to obtain 1 mL of a solution containing 0.5 wt % amphiphile. Each solution was filtered through a 0.02 μm filter for DLS measurements. A 100-mW, 532-nm laser (Compass 315M-100, Coherent, Santa Clara, Calif.) illuminated a temperature-controlled glass cell at 25° C. that was filled with a refractive-index matching fluid (decahydronaphthalene, Fisher Scientific, Pittsburgh, Pa.). The scattered light was collected at an angle of 90° for about 30 minutes. Rh values were determined using the integrated dynamics software that analyzes the time scale of the scattered light intensity fluctuations by an autocorrelation function. The autocorrelation functions (ACFs) were obtained using a BI-9000AT digital autocorrelator (Brookhaven Instruments, Holtsville, N.Y.). Measurements were repeated three times.

Bacteriorhodopsin (bR) = molecular target: T1, Bacteriorhodopsin (bR) (Halobacterium salinarum, UniProt P02945); test: Stabilization assay for bacteriorhodopsin (absorbance at 554 nm); settings: day 20, room temperature, 0.2 wt % OTG+0.8 wt % TFA
T1 construct: extract bR from the native purple membrane; endogenous in cells
T1 sequence (P02945 14-261 limits assumed): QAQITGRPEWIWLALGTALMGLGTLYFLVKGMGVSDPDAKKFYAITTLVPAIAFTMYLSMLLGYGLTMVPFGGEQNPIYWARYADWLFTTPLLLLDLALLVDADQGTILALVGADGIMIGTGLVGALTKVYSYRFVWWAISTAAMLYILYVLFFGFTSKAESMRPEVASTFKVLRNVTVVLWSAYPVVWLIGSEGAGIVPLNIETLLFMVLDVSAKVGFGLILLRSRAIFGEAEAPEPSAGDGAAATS
Description: Bacteriorhodopsin (bR) has been widely employed for assessment of new amphiphiles because this membrane protein is readily available, and stability can be assessed via spectrophotometry (absorbance at 554 nm). Following standard protocols (Bazzacco et al., Biomacromolecules 2009, 10, 3317-3326), 2.0 wt % octyl-β-D-thioglucoside (OTG) was used to extract bR from the native purple membrane. After removal of insoluble debris via ultracentrifugation, the bR solution was diluted with amphiphile-containing solutions to generate samples containing 0.2 wt % OTG+0.8 wt % TFA. A control sample had OTG added to give a total of 1.0 wt %. […] Parallel studies were carried out at different amphiphile concentrations as described in Example 3 below. DDM is not efficient at bR extraction from the native membrane but extracted bR can be stable in the presence of DDM (Milder et al., Biochemistry 1991, 30, 1751-1761).
The general procedure was followed according to the reported protocol of Bazzacco et al. (Biomacromolecules 10, 3317-3326 (2009)). Frozen aliquots of purple membranes containing bR at 184 μM were thawed and solubilized by incubation with octylthioglucoside (OTG) for 24 hr at 4° C. in a dark room. For the solubilization, OTG (CMC=0.28 wt %) was used at 2.0 wt % in 10 mM sodium phosphate (pH 6.9). […] BR stability in each TFA solutions was monitored by measuring absorbance at 554 nm for 20 days.

Structure (SMILES)	Rh (nm), hydrodynamic radius of micelles measured by dynamic light scattering [1] [nm]	bR intact (Bacteriorhodopsin (bR)) [%]
CCCCCCCCCCCCO[C@@H]1O[C@H](CO)[C@@H](O[C@H]2O[C@H](CO)[C@@H](O)[C@H](O)[C@H]2O)[C@H](O)[C@H]1O [DDM, dodecyl-β-D-maltoside, reference compound]	3.4 ± 0.03	
C[C@H](CCC(=O)N(C)CCCN(C)C(=O)CC[C@@H](C)[C@H]1CC[C@H]2[C@@H]3CC[C@@H]4C[C@H](O[C@@H]5O[C@H](CO)[C@@H](O[C@H]6O[C@H](CO)[C@@H](O)[C@H](O)[C@H]6O)[C@H](O)[C@H]5O)CC[C@]4(C)[C@H]3C[C@H](O[C@@H]3O[C@H](CO)[C@@H](O[C@H]4O[C@H](CO)[C@@H](O)[C@H](O)[C@H]4O)[C@H](O)[C@H]3O)[C@]12C)[C@H]1CC[C@H]2[C@@H]3CC[C@@H]4C[C@H](O[C@@H]5O[C@H](CO)[C@@H](O[C@H]6O[C@H](CO)[C@@H](O)[C@H](O)[C@H]6O)[C@H](O)[C@H]5O)CC[C@]4(C)[C@H]3C[C@H](O[C@@H]3O[C@H](CO)[C@@H](O[C@H]4O[C@H](CO)[C@@H](O)[C@H](O)[C@H]4O)[C@H](O)[C@H]3O)[C@]12C [TFA-1]	1.9 ± 0.08	~80
